Values of other authors in US11318093B2, “Dental topical anesthetic gel” (Pac-Dent, Inc., priority 2019, dated 2022).

Experiments:
[1] = in vivo
[2] = system: MCP-2 chemokine and other proinflammatory cytokines; conditions: Petrosino et al. 2018; in vitro ACD model; inhibition of MCP-2 chemokine and proinflammatory cytokine production
[3] = system: methicillin-resistant Staphylococcus aureus strains (MRSA); conditions: European research; strains resistant to several classes of drugs
[4] = Evans 1991

What does the source list for `CCCCCc1cc(O)c2c(c1)OC(C)(CCC=C(C)C)C=C2` (stereo not drawn) [CBC, cannabichromene]?
pain and inflammation associated with collagen-induced osteoarthritis [1]: block pain and inflammation; anti-inflammatory properties [2]: some anti-inflammatory benefits

With `CCCCCc1cc(O)c(C/C=C(\C)CCC=C(C)C)c(O)c1` [CBG, cannabigerol] as the molecule, how does the “antibacterial agent against MRSA” value [3] read?
The value was “effective antibacterial agent”.

What about the anti-inflammatory properties [2] of the same molecule?
The anti-inflammatory properties was “some anti-inflammatory benefits”.

With `C=C(C)[C@@H]1CCC(C)=C[C@H]1c1c(O)cc(CCCCC)cc1O` [CBD, cannabidiol] as the molecule, how does the anti-inflammatory properties [2] read?
Its anti-inflammatory properties is “potent anti-inflammatory properties”.

For `C=C(C)[C@@H]1CCC(C)=C[C@H]1c1c(O)cc(CCC)cc1O` [CBDV, cannabidivarin], which anti-inflammatory properties [2] is on record?
The anti-inflammatory properties was “some anti-inflammatory benefits”.

What does the source list for `CCCCCc1cc(O)c2c(c1)OC(C)(C)[C@@H]1CCC(C)=C[C@@H]21` [THC, tetrahydrocannabinol]?
cyclooxygenase (COX) inhibition (cyclooxygenase (COX)): without any cyclooxygenase (COX) inhibition; anti-inflammatory potency relative to aspirin [4]: twenty times that of aspirin; anti-inflammatory potency relative to hydrocortisone [4]: twice that of hydrocortisone
